Measured values taken from patent publication US9107411B2, “Indolecarboxamides and benzimidazolecarboxamides as insecticides and acaricides” (BAYER INTELLECTUAL PROPERTY GMBH, priority 2011, dated 2015).

What was measured:
Assay type in all cases: in vivo
Boophilus microplus = Boophilus microplus test (BOOPMI injection); details: application rate 20 μg/animal; injected into the abdomen; after 7 days
How it was run: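 Active ingredient dissolved in DMSO (10 mg in 0.5 ml, then diluted to the test concentration) and injected into the abdomen of Boophilus microplus ticks. Ticks kept in dishes in a climate-controlled room for 7 days. Efficacy (%) is based on laying of fertile eggs; 100% means no tick laid fertile eggs.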

Lucilia cuprina larvae = assay: Lucilia cuprina test (LUCICU); details: application rate 100 ppm; treated horse meat; after 2 days
How it was run: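 About 20 Lucilia cuprina larvae placed on horse meat treated with compound formulation (DMSO concentrate diluted in water). Kill (%) scored after 2 days, 100% meaning all larvae dead.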

Tetranychus urticae = assay: Common spider mite test (TETRUR); details: application rate 100 ppm; bean leaf discs; after 6 days
Method: Common Spider Mite Test (TETRUR) Solvent: 3 parts by weight of dimethylformamide Emulsifier: 1 part by weight of polyoxyethylene alkylphenyl ether To produce an appropriate active ingredient formulation, 1 part by weight of active ingredient is mixed with the stated amounts of solvent and emulsifier, and the concentrate is diluted with emulsifier-containing water to the desired concentration. If required, ammonium salts or ammonium salts and penetrants are additionally added in a concentration of 1000 ppm. Discs of bean leaves (Phaseolus vulgaris) infested by all stages of the red spider mite (Tetranychus urticae) are sprayed with an active ingredient formulation of the desired concentration. After 6 days, the efficacy in % is determined. 100% means that all of the spider mites have been killed; 0% means that none of the spider mites have been killed.

Thrips palmi = Thrips palmi spray test (THRIPL); details: application rate 20 ppm; cucumber plants; after 6 days
Method: Thrips palmi Spray Test (THRIPL)
Solvent: 3 parts by weight of dimethylformamide
Emulsifier: 1 part by weight of polyoxyethylene alkylphenyl ether
To produce an appropriate active ingredient formulation, 1 part by weight of active ingredient is mixed with the stated amounts of solvent and emulsifier, and the concentrate is diluted with emulsifier-containing water to the desired concentration. If required, ammonium salts or ammonium salts and penetrants are additionally added in a concentration of 1000 ppm.
Young cucumber plants (Cucumis sativus) are sprayed with an active ingredient formulation of the desired concentration. After drying, filter paper discs with about 100 thrips eggs (Thrips palmi) are placed onto the treated plants and, to give 100% air humidity, covered with housings.
After 6 days, the efficacy in % feeding damage is determined 100% means that there is no feeding damage; 0% means that there is no difference from the untreated control.

[1] = tested on: adult engorged Boophilus microplus females of the SP-resistant Parkhurst strain; assay: Boophilus microplus test (DIP); details: application rate 100 ppm, after 7 days
Method: Boophilus microplus Test (DIP)
Test animals: adult engorged Boophilus microplus females of the SP-resistant Parkhurst strain
Solvent: dimethyl sulphoxide
10 mg of active ingredient are dissolved in 0.5 ml of dimethyl sulphoxide. For the purpose of preparing a suitable formulation, the active ingredient solution is diluted with water to the concentration desired in each case.
This active ingredient formulation is pipetted into tubes. 8-10 ticks are transferred into a further tube with holes. The tube is immersed into the active ingredient formulation, and all ticks are completely wetted. After the liquid has run out, the ticks are transferred onto filter discs in plastic dishes and stored in a climate-controlled room.
The activity is assessed after 7 days by laying of fertile eggs. Eggs whose fertility is not outwardly visible are stored in glass tubes in a climate-controlled cabinet until the larvae hatch. An efficacy of 100% means that none of the ticks has laid any fertile eggs.

Myzus persicae = assay: Myzus test (MYZUPE spray treatment); details: application rate 100 g/ha; Chinese cabbage leaf discs; after 6 days
Method: Myzus Test (MYZUPE Spray Treatment) Solvent: 78 parts by weight of acetone • • 1.5 parts by weight of dimethylformamide Emulsifier: 0.5 part by weight of alkylaryl polyglycol ether To produce an appropriate active ingredient formulation, 1 part by weight of active ingredient is mixed with the stated amounts of solvent and emulsifier, and the concentrate is diluted with emulsifier-containing water to the desired concentration. Leaf discs of Chinese cabbage (Brassica pekinensis) infested by all stages of the green peach aphid (Myzus persicae) are sprayed with an active ingredient formulation of the desired concentration. After 6 days, the efficacy in % is determined. 100% means that all of the aphids have been killed; 0% means that none of the aphids have been killed.

| SMILES | efficacy (laying of fertile eggs) (Boophilus microplus) [%] | efficacy (kill in %) (Lucilia cuprina larvae) [%] | efficacy in % (Tetranychus urticae) [%] | efficacy in % feeding damage (Thrips palmi) [%] | efficacy (laying of fertile eggs) [1] [%] | efficacy in % (Myzus persicae) [%] |
| --- | --- | --- | --- | --- | --- | --- |
| C#CCn1c(C(=O)NC(c2ccc(F)c(C(F)(F)F)c2)C(F)(F)F)cc2cc(C(=O)NC3CC3)c(Cl)cc21 (stereo not shown) [Compound 6] | 100 | 100 | 100 | 90 | – | – |
| CCn1c(C(=O)NC(c2cccc(C(F)(F)F)c2)C(F)(F)F)cc2cc(C(=O)NC3(C#N)CC3)c(Cl)cc21 (stereo not shown) [Compound 7, 6-chloro-N^5-(1-cyanocyclopropyl)-1-ethyl-N^2-{2,2,2-trifluoro-1-[3-(trifluoromethyl)phenyl]ethyl}-1H-indole-2,5-dicarboxamide] | 100 | 100 | 100 | 98 | 100 | 90 |
